The experiment addresses T1, human ferroportin (Homo sapiens, UniProt Q9NP59).
T1 construct: luciferase reporter (read with the Nano-Glo Luciferase Assay System); expressed in transfected cells; host or cells: CHO cells, stably transfected, expression induced with doxycycline
T1 sequence (Q9NP59 1-571): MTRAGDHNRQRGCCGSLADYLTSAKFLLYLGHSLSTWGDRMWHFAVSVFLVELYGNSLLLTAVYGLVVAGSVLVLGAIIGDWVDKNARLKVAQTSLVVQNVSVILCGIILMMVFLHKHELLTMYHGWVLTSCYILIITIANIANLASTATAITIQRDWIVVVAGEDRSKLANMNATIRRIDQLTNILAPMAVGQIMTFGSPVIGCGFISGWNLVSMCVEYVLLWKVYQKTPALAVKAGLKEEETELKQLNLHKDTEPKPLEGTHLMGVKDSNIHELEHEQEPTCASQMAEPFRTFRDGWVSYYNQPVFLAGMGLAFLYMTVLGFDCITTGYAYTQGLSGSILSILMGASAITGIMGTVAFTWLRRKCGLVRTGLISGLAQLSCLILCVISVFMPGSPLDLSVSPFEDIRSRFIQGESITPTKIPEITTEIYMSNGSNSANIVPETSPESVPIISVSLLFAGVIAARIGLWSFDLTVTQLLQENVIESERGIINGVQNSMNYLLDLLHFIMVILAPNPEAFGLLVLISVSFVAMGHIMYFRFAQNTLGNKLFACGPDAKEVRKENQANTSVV
Description: Biological in-vitro ferroportin internalization assay (luciferase reporter). The experiment is classed as cell-based. To be noted: average pEC50; stably-transfected CHO cell line expressing human ferroportin tagged to a luciferase reporter; 6 h incubation with test compound. The method in brief:
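Read-out is Nano-Glo luciferase signal after 6 h compound exposure, with average pEC50 derived. Cells are a stable CHO line carrying luciferase-tagged human ferroportin, pre-loaded 24 h with ferric ammonium citrate and doxycycline-induced for 24 h.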
(In general: In a reporter assay the amount or activity of a reporter protein is the signal.)

As for `CN(CC(=O)NC(C)(C)C)c1nc(-c2cc3ccoc3cn2)nc2c1CCC2` [Compound 365, N-tert-butyl-2-[(2-{furo[2,3-c]pyridin-5-yl}-5H,6H,7H-cyclopenta[d]pyrimidin-4-yl)(methyl)amino]acetamide], the pEC50 (commonly −log10 of the EC50, conventionally taken in molar units) was found to be 7.4. For `C[C@@H](O)COc1ccnc(-c2nc3c(c(N(C)CC(=O)NC(C)(C)C)n2)CCC3)c1` [Compound 366, N-tert-butyl-2-[(2-{4-[(2R)-2-hydroxypropoxy]pyridin-2-yl}-5H,6H,7H-cyclopenta[d]pyrimidin-4-yl)(methyl)amino]acetamide] the value was 7.7; for `CCC(C)(C)NC(=O)CN(C)c1nc(-c2cc(OCCO)ccn2)nc2c1CCC2` [Compound 367, 2-({2-[4-(2-hydroxyethoxy)pyridin-2-yl]-5H,6H,7H-cyclopenta[d]pyrimidin-4-yl}(methyl)amino)-N-(2-methylbutan-2-yl)acetamide], 8. `CN(CC(=O)N1CCCC1(C)C)c1nc(-c2cc(OCCO)ccn2)nc2c1CCC2` [Compound 368, 1-(2,2-dimethylpyrrolidin-1-yl)-2-({2-[4-(2-hydroxyethoxy)pyridin-2-yl]-5H,6H,7H-cyclopenta[d]pyrimidin-4-yl}(methyl)amino)ethan-1-one] came in with a pEC50 of 7.8. As for `CC(=O)NCCOc1ccnc(-c2nc3c(c(N(C)CC(=O)NC(C)(C)C)n2)CCC3)c1` [Compound 369, N-tert-butyl-2-({2-[4-(2-acetamidoethoxy)pyridin-2-yl]-5H,6H,7H-cyclopenta[d]pyrimidin-4-yl}(methyl)amino)acetamide], the figure is 7.7; as for `C[C@H](O)COc1ccnc(-c2nc3c(c(N(C)CC(=O)NC(C)(C)C)n2)CCC3)c1` [Compound 370, N-tert-butyl-2-[(2-{4-[(2S)-2-hydroxypropoxy]pyridin-2-yl}-5H,6H,7H-cyclopenta[d]pyrimidin-4-yl)(methyl)amino]acetamide], 8.2; as for `COc1ccnc(-c2nc3c(c(N(C)CC(=O)N[C@H]4CCOC4)n2)CCC3)c1` [Compound 371, 2-{[2-(4-methoxypyridin-2-yl)-5H,6H,7H-cyclopenta[d]pyrimidin-4-yl](methyl)amino}-N-[(3S)-oxolan-3-yl]acetamide], 7.5. For `COc1ccnc(-c2nc3c(c(N(C)CC(=O)N[C@@H]4CCOC4)n2)CCC3)c1` [Compound 372, 2-{[2-(4-methoxypyridin-2-yl)-5H,6H,7H-cyclopenta[d]pyrimidin-4-yl](methyl)amino}-N-[(3R)-oxolan-3-yl]acetamide] the value was 7.5. `COc1ccnc(-c2nc3c(c(N(C)CC(=O)NC4COC4)n2)CCC3)c1` [Compound 373, 2-{[2-(4-methoxypyridin-2-yl)-5H,6H,7H-cyclopenta[d]pyrimidin-4-yl](methyl)amino}-N-(oxetan-3-yl)acetamide]: the pEC50 was found to be 7.3.

`CN(CC(=O)NC1COC1)c1nc(-c2cc(OCCO)ccn2)nc2c1CCC2` [Compound 374, 2-({2-[4-(2-hydroxyethoxy)pyridin-2-yl]-5H,6H,7H-cyclopenta[d]pyrimidin-4-yl}(methyl)amino)-N-(oxetan-3-yl)acetamide] came in with a pEC50 of 7.2.

Compound `COc1cc2c(cn1)N(C(=O)CN(C)c1nc(-c3cc(OCCO)ccn3)nc3c1CCC3)CC2` [Compound 375, 2-({2-[4-(2-hydroxyethoxy)pyridin-2-yl]-5H,6H,7H-cyclopenta[d]pyrimidin-4-yl}(methyl)amino)-1-{5-methoxy-1H,2H,3H-pyrrolo[2,3-c]pyridin-1-yl}ethan-1-one] yielded a pEC50 of 8. As for `CN(CC(=O)NC1(C)CCC1)c1nc(-c2cc(OCCO)ccn2)nc2c1CCC2` [Compound 376, 2-({2-[4-(2-hydroxyethoxy)pyridin-2-yl]-5H,6H,7H-cyclopenta[d]pyrimidin-4-yl}(methyl)amino)-N-(1-methylcyclobutyl)acetamide], the figure is 8; as for `C[C@@H](O)COc1ccnc(-c2nc3c(c(N(C)CC(=O)NC4(C)CCC4)n2)CCC3)c1` [Compound 377, 2-[(2-{4-[(2R)-2-hydroxypropoxy]pyridin-2-yl}-5H,6H,7H-cyclopenta[d]pyrimidin-4-yl)(methyl)amino]-N-(1-methylcyclobutyl)acetamide], 7.8.

The compound `C[C@H](O)COc1ccnc(-c2nc3c(c(N(C)CC(=O)NC4(C)CCC4)n2)CCC3)c1` [Compound 378, 2-[(2-{4-[(2S)-2-hydroxypropoxy]pyridin-2-yl}-5H,6H,7H-cyclopenta[d]pyrimidin-4-yl)(methyl)amino]-N-(1-methylcyclobutyl)acetamide] registered a pEC50 of 8. Turning to `COc1ccnc(-c2nc3c(c(N(C)Cc4nc(Cc5ccccc5)co4)n2)CCC3)c1` [Compound 379, N-[(4-benzyl-1,3-oxazol-2-yl)methyl]-2-(4-methoxypyridin-2-yl)-N-methyl-5H,6H,7H-cyclopenta[d]pyrimidin-4-aminemide], the pEC50 is 7.2. The compound `COc1ccnc(-c2nc3c(c(N(C)Cc4nc(-c5ccccc5)co4)n2)CCC3)c1` [Compound 380, 2-(4-methoxypyridin-2-yl)-N-methyl-N-[(4-phenyl-1,3-oxazol-2-yl)methyl]-5H,6H,7H-cyclopenta[d]pyrimidin-4-amine] showed a pEC50 of 6.6.

For the compound `CN(CC(=O)NC(C)(C)C)c1nc(-c2cc(OCC3(O)CCCC3)ccn2)nc2c1CCC2` [Compound 381, N-tert-butyl-2-[(2-{4-[(1-hydroxycyclopentyl)methoxy]pyridin-2-yl}-5H,6H,7H-cyclopenta[d]pyrimidin-4-yl)(methyl)amino]acetamide], the pEC50 came to 8.3. For `CN(CC(=O)N1CCCCC1)c1nc(-c2cc(OCC(C)(C)O)ccn2)nc2c1CCC2` [Compound 382, 2-({2-[4-(2-hydroxy-2-methylpropoxy)pyridin-2-yl]-5H,6H,7H-cyclopenta[d]pyrimidin-4-yl}(methyl)amino)-1-(piperidin-1-yl)ethan-1-oneide] the value was 7.8; for `CN(CC(=O)NC12CC(C1)C2)c1nc(-c2cc(OCC(C)(C)O)ccn2)nc2c1CCC2` [Compound 383, N-{bicyclo[1.1.1]pentan-1-yl}-2-({2-[4-(2-hydroxy-2-methylpropoxy)pyridin-2-yl]-5H,6H,7H-cyclopenta[d]pyrimidin-4-yl}(methyl)amino)acetamide], 7.8; for `C[C@H](CO)Oc1ccnc(-c2nc3c(c(N(C)CC(=O)NC(C)(C)C)n2)CCC3)c1` [Compound 384, N-tert-butyl-2-{[2-(4-{[(2R)-1-hydroxypropan-2-yl]oxy}pyridin-2-yl)-5H,6H,7H-cyclopenta[d]pyrimidin-4-yl](methyl)amino}acetamide], 8.1. For `C[C@@H](CO)Oc1ccnc(-c2nc3c(c(N(C)CC(=O)NC(C)(C)C)n2)CCC3)c1` [Compound 385, N-tert-butyl-2-{[2-(4-{[(2S)-1-hydroxypropan-2-yl]oxy}pyridin-2-yl)-5H,6H,7H-cyclopenta[d]pyrimidin-4-yl](methyl)amino}acetamide] the value was 8.2.

In the case of `CC(C)[C@H](O)COc1ccnc(-c2nc3c(c(N(C)CC(=O)NC(C)(C)C)n2)CCC3)c1` [Compound 386, N-tert-butyl-2-[(2-{4-[(2S)-2-hydroxy-3-methylbutoxy]pyridin-2-yl}-5H,6H,7H-cyclopenta[d]pyrimidin-4-yl)(methyl)amino]acetamide], the pEC50 is listed as 8.4.

Values taken from patent US11746100B2 (GLOBAL BLOOD THERAPEUTICS, INC., priority 2020, dated 2023).
